Results: patent US12378203B2, “Imidazole compounds, process for the synthesis and uses thereof” (AHAMMUNE BIOSCIENCES PRIVATE LIMITED, priority 2018, dated 2025)

Legend:
Format in all cases: cell-based
[1] = tested on: human A375 cells; experiment: Protection of melanocytes from tunicamycin (ER stress) induced cell death, MTT assay, A375; conditions: for % Recovery: compound at 25-30 μM, 6 h pretreatment, tunicamycin 100 ng/ml, total 72 h, cell growth over tunicamycin treatment; for EC50: Homo sapiens, A-375, different concentrations of compound along with tunicamycin, GraphPad Prism 7
Method: (§1) Compounds synthesized under present invention were tested for their in vitro potency. The potency was tested as their ability to protect melanocytes from ER stress induced cell death. ER stress was caused by the treatment of tunicamycin. The results obtained are summarized in Table-I, Table-II and Table-III for mouse B16F10 cells, human A375 cells and human primary melanocytes respectively. Table-IV and Table-V describes the potency of the compounds in effective concentration 50 (EC50) which means the dose of compound needed to get the 50% of maximum effect.
(§2) For the estimation of potency, mouse B16F10, human A375 or human primary melanocytes (NHEM) cells were pretreated in quadruplicates with these compounds for 6 hours. After 6 hours of incubation, tunicamycin was added at either 300 ng/ml for B16F10 cells or at 100 ng/ml for A375 cells or at 200 ng/ml for NHEM to induce stress mediated cell death and cultured further for a total of 72 hours. The vehicle (DMSO) concentration was kept constant for each well. After 72 hours of treatment, MTT assay was performed to measure the cell growth and vehicle control was kept at 100%. Effect of the treatment of compounds was calculated as cell growth over tunicamycin treatment. For the estimation of Effective Concentration 50 (EC50), cells were treated with different concentration of compounds along with tunicamycin and MTT assay was performed. The EC50 values were calculated by GraphPad Prism 7 software.

[2] = tested on: mouse B16F10 cells; experiment: Protection of melanocytes from tunicamycin (ER stress) induced cell death, MTT assay, B16F10; conditions: for % Recovery: compound at 25-30 μM, 6 h pretreatment, tunicamycin 300 ng/ml, total 72 h, cell growth over tunicamycin treatment; for EC50: Mus musculus, B16-F10, different concentrations of compound along with tunicamycin, GraphPad Prism 7
Method: as §1, §2

[3] = tested on: human primary melanocytes (NHEM: Normal Human Epidermal Melanocytes); experiment: Protection of melanocytes from tunicamycin (ER stress) induced cell death, MTT assay, NHEM; conditions: compound at 25-30 μM, 6 h pretreatment, tunicamycin 200 ng/ml, total 72 h, cell growth over tunicamycin treatment
Method: as §1, §2

SMILES | % Recovery [1] | % Recovery [2] | EC50 [1] | % Recovery [3] | EC50 [2]
O=C(Cc1c[nH]c(-c2ccc(Cl)cc2)n1)NCCc1ccc(F)cc1 [Compound 001, 2-(2-(4-chlorophenyl)-1H-imidazol-4-yl)-N-(4-fluorophenethyl)acetamide] | 25% | 52% |  |  | 
CCCC(=O)NCCc1c[nH]c(-c2ccc(Cl)cc2)n1 [Compound 002, N-(2-(2-(4-chlorophenyl)-1H-imidazol-4-yl)ethyl)butyramide] | 22% | 58% | 20.6 µM | 17% | 2.71 µM
O=C(Cc1c[nH]c(-c2ccc(Cl)cc2)n1)NCCN1CCOCC1 [Compound 003, 2-(2-(4-chlorophenyl)-1H-imidazol-4-yl)-N-(2-morpholinoethyl)acetamide] | 13% | 17% |  |  | 
CCCCNC(=O)Cc1c[nH]c(-c2ccc(Cl)cc2)n1 [Compound 004, N-butyl-2-(2-(4-chlorophenyl)-1H-imidazol-4-yl)acetamide] | 32% | 22% |  |  | 
CCCCNC(=O)Cc1cn(C)c(-c2ccc(Cl)cc2)n1 [Compound 005, N-butyl-2-(2-(4-chlorophenyl)-1-methyl-1H-imidazol-4-yl)acetamide] |  | 38% |  |  | 
Cn1cc(CC(=O)NCCN2CCOCC2)nc1-c1ccc(Cl)cc1 [Compound 006, 2-(2-(4-chlorophenyl)-1-methyl-1H-imidazol-4-yl)-N-(2-morpholinoethyl)acetamide] |  | 31% |  |  | 
Cn1cc(CC(=O)Nc2cccc(C(F)(F)F)c2)nc1-c1ccc(Cl)cc1 [Compound 007, 2-(2-(4-chlorophenyl)-1-methyl-1H-imidazol-4-yl)-N-(3-(trifluoromethyl)phenyl)acetamide] | 19% | 38% |  |  | 
CC(C)OCCCNC(=O)Cc1cn(C)c(-c2ccc(Cl)cc2)n1 [Compound 008, 2-(2-(4-chlorophenyl)-1-methyl-1H-imidazol-4-yl)-N-(3-isopropoxypropyl)acetamide] |  | 39% |  |  | 
O=C(Cc1c[nH]c(-c2ccc(Cl)cc2)n1)Nc1cccc(C(F)(F)F)c1 [Compound 009, 2-(2-(4-chlorophenyl)-1H-imidazol-4-yl)-N-(3-(trifluoromethyl)phenyl)acetamide] |  | 36% |  |  | 
CC(C)OCCCNC(=O)Cc1c[nH]c(-c2ccc(Cl)cc2)n1 [Compound 010, 2-(2-(4-chlorophenyl)-1H-imidazol-4-yl)-N-(3-isopropoxypropyl)acetamide] | 17% | 12% |  |  | 
O=C(Cc1c[nH]c(-c2ccc(Cl)cc2)n1)Nc1ccc(F)cc1 [Compound 011, 2-(2-(4-chlorophenyl)-1H-imidazol-4-yl)-N-(4-fluorophenyl)acetamide] |  | 18% |  |  | 
O=C(Cc1c[nH]c(-c2ccc(Cl)cc2)n1)N1CCC(F)(F)CC1 [Compound 012, 2-(2-(4-chlorophenyl)-1H-imidazol-4-yl)-1-(4,4-difluoropiperidin-1-yl)ethan-1-one] |  | 15% |  |  | 
Cn1cc(CC(=O)Nc2ccc(F)cc2)nc1-c1ccc(Cl)cc1 [Compound 013, 2-(2-(4-chlorophenyl)-1-methyl-1H-imidazol-4-yl)-N-(4-fluorophenyl)acetamide] |  | 40% |  |  | 
O=C(Cc1c[nH]c(-c2ccc(Cl)cc2)n1)Nc1ccc(C(F)(F)F)cc1 [Compound 014, 2-(2-(4-chlorophenyl)-1H-imidazol-4-yl)-N-(4-(trifluoromethyl)phenyl)acetamide] | 36% | 52% | 33.3 µM |  | 
O=C(Cc1c[nH]c(-c2ccc(Cl)cc2)n1)N1CCCC1 [Compound 016, 2-(2-(4-chlorophenyl)-1H-imidazol-4-yl)-1-(pyrrolidin-1-yl)ethan-1-one] | 17% | 14% |  |  | 
Cn1cc(CC(=O)N2CCCC2)nc1-c1ccc(Cl)cc1 [Compound 017, 2-(2-(4-chlorophenyl)-1-methyl-1H-imidazol-4-yl)-1-(pyrrolidin-1-yl)ethan-1-one] |  | 29% |  |  | 
O=C(Cc1c[nH]c(-c2ccc(Cl)cc2)n1)NC1CCCC1 [Compound 019, 2-(2-(4-chlorophenyl)-1H-imidazol-4-yl)-N-cyclopentylacetamide] |  | 36% |  |  | 

SMILES | % Recovery [1] | % Recovery [2] | EC50 [1] | % Recovery [3] | EC50 [2]
CN1CCN(C(=O)Cc2c[nH]c(-c3ccc(Cl)cc3)n2)CC1 [Compound 020, 2-(2-(4-chlorophenyl)-1H-imidazol-4-yl)-1-(4-methylpiperazin-1-yl)ethan-1-one] |  | 17% |  |  | 
CN1CCN(C(=O)Cc2cn(C)c(-c3ccc(Cl)cc3)n2)CC1 [Compound 021, 2-(2-(4-chlorophenyl)-1-methyl-1H-imidazol-4-yl)-1-(4-methylpiperazin-1-yl)ethan-1-one] |  |  |  |  | 55.7 µM
Cn1cc(CC(=O)NCCc2ccc(F)cc2)nc1-c1ccc(Cl)cc1 [Compound 022, 2-(2-(4-chlorophenyl)-1-methyl-1H-imidazol-4-yl)-N-(4-fluorophenethyl)acetamide] | 18% | 44% |  |  | 13.7 µM
CC(C)(C)CC(=O)NCCc1c[nH]c(-c2ccc(Cl)cc2)n1 [Compound 025, N-(2-(2-(4-chlorophenyl)-1H-imidazol-4-yl)ethyl)-3,3-dimethylbutanamide] | 57% | 55% | 14.2 µM | 41% | 3.3 µM
CCC(C)(C)C(=O)NCCc1c[nH]c(-c2ccc(Cl)cc2)n1 [Compound 026, N-(2-(2-(4-chlorophenyl)-1H-imidazol-4-yl)ethyl)-2,2-dimethylbutanamide] | 50% | 15% | 18.6 µM | 30% | 8.6 µM
CC(C)CC(=O)NCCc1c[nH]c(-c2ccc(Cl)cc2)n1 [Compound 027, N-(2-(2-(4-chlorophenyl)-1H-imidazol-4-yl)ethyl)-3-methylbutanamide] | 56% |  | 14.9 µM | 33% | 
O=C(NCCc1c[nH]c(-c2ccc(Cl)cc2)n1)C1CC1 [Compound 046, N-(2-(2-(4-chlorophenyl)-1H-imidazol-4-yl)ethyl)cyclopropanecarboxamide] | 63% | 27% | 7.9 µM | 10% | 
O=C(NCCc1c[nH]c(-c2ccc(Cl)cc2)n1)C1CCC1 [Compound 050, N-(2-(2-(4-chlorophenyl)-1H-imidazol-4-yl)ethyl)cyclobutanecarboxamide] | 27% | 35% | 33.4 µM | 5% | 
O=C(NCCc1c[nH]c(-c2ccc(Cl)cc2)n1)c1ccc(F)cc1 [Compound 051, N-(2-(2-(4-chlorophenyl)-1H-imidazol-4-yl)ethyl)-4-fluorobenzamide] | 50% | 22% | 5.9 µM | 35% | 
O=C(NCCc1c[nH]c(-c2ccc(Cl)cc2)n1)C12CC3CC(CC(C3)C1)C2 [Compound 064, (3r,5r,7r)-N-(2-(2-(4-chlorophenyl)-1H-imidazol-4-yl)ethyl)adamantane-1-carboxamide] | 65% |  | 4.9 µM | 38% | 
O=C(NCCc1c[nH]c(-c2ccc(Cl)cc2Cl)n1)c1ccc(C(F)(F)F)cc1 [Compound 066, N-(2-(2-(2,4-dichlorophenyl)-1H-imidazol-4-yl)ethyl)-4-(trifluoromethyl)benzamide] | 44% | 50% | 12.1 µM |  | 7.2 µM
CCCCCC(=O)NCCc1c[nH]c(-c2ccc(Cl)cc2)n1 [Compound 067, N-(2-(2-(4-chlorophenyl)-1H-imidazol-4-yl)ethyl)hexanamide] | 54% | 40% | 3.1 µM |  | 9.7 µM
CCCCCCCC(=O)NCCc1c[nH]c(-c2ccc(Cl)cc2)n1 [Compound 068, N-(2-(2-(4-chlorophenyl)-1H-imidazol-4-yl)ethyl)octanamide] | 42% | 21% | 9 µM |  | 33.8 µM
O=C(NCCc1c[nH]c(-c2cc(Cl)cc(Cl)c2)n1)c1cc(F)cc(F)c1 [Compound 069, N-(2-(2-(3,5-dichlorophenyl)-1H-imidazol-4-yl)ethyl)-3,5-difluorobenzamide] | 88% |  | 1.2 µM |  | 
O=C(NCCc1c[nH]c(-c2ccc(Cl)cc2Cl)n1)c1ccc(F)cc1 [Compound 070, N-(2-(2-(2,4-dichlorophenyl)-1H-imidazol-4-yl)ethyl)-4-fluorobenzamide] | 44% | 51% | 8.1 µM |  | 11.9 µM
O=C(NCCc1c[nH]c(-c2ccc(Cl)cc2Cl)n1)c1cc(F)cc(F)c1 [Compound 071, N-(2-(2-(2,4-dichlorophenyl)-1H-imidazol-4-yl)ethyl)-3,5-difluorobenzamide] | 39% | 58% | 10.5 µM |  | 10.9 µM
